Assay results taken from ChEMBL document CHEMBL1201862, “PubChem BioAssay data set” (2004).
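Results reflect a 48-hour exposure of cells in 96-well plates to compound at five concentrations. At the GI50, growth is halved.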 The source made the active and inactive calls. Rule as the data show it: active = GI50 up to about 1.1 µM and inactive = higher.

Legend:
Test in all cases: NCI tumour cell line growth inhibition, 48 h
786-0 = tested on: 786-0
EKVX = tested on: EKVX
HCT-116 = tested on: HCT-116
HOP-62 = tested on: HOP-62
HOP-92 = tested on: HOP-92
HT-29 = tested on: HT-29
K562 = tested on: K562
KM12 = tested on: KM12
LOX IMVI = tested on: LOX IMVI
MCF7 = tested on: MCF7
MDA-N = tested on: MDA-N
OVCAR-3 = tested on: OVCAR-3
OVCAR-5 = tested on: OVCAR-5
PC-3 = tested on: PC-3
SF-539 = tested on: SF-539
SK-MEL-28 = tested on: SK-MEL-28
SW-620 = tested on: SW-620
T47D = tested on: T47D
TK-10 = tested on: TK-10
UO-31 = tested on: UO-31

SMILES	GI50 (786-0)	GI50 (EKVX)	GI50 (HCT-116)	GI50 (HOP-62)	GI50 (HOP-92)	GI50 (HT-29)	GI50 (K562)	GI50 (KM12)	GI50 (LOX IMVI)	GI50 (MCF7)	GI50 (MDA-N)	GI50 (OVCAR-3)	GI50 (OVCAR-5)	GI50 (PC-3)	GI50 (SF-539)	GI50 (SK-MEL-28)	GI50 (SW-620)	GI50 (T47D)	GI50 (TK-10)	GI50 (UO-31)
CCCCCN1C(=O)C(Cc2ccccc2)N=C(c2ccc(O)cc2)c2cc(Cl)ccc21 (stereo not drawn)	13.6 µM (inactive)	8.41 µM (inactive)	7.94 µM (inactive)	23.7 µM (inactive)	10.7 µM (inactive)	9.06 µM (inactive)	3.23 µM (inactive)	10.1 µM (inactive)	6.56 µM (inactive)	9.98 µM (inactive)	> 21.2 µM (inactive)	17.3 µM (inactive)	22.3 µM (inactive)	6.21 µM (inactive)	22.2 µM (inactive)	15.1 µM (inactive)	10.9 µM (inactive)	3.72 µM (inactive)	12.9 µM (inactive)	10.4 µM (inactive)
O=C(/C=C/c1ccc(O)cc1)c1cc(O)cc(O)c1	16.6 µM (inactive)	17.3 µM (inactive)	13.2 µM (inactive)	15.6 µM (inactive)	14.3 µM (inactive)	17.5 µM (inactive)	2.68 µM (inactive)		4.32 µM (inactive)	3.54 µM (inactive)	11.9 µM (inactive)	15.3 µM (inactive)	13.8 µM (inactive)	11.1 µM (inactive)	13.5 µM (inactive)	21.2 µM (inactive)		14.6 µM (inactive)	24.4 µM (inactive)	10 µM (inactive)
COc1cccc2c1C(=O)c1c(O)c3c(c(O)c1C2=O)C[C@@](O)(C(=O)CO)CC3OC1CC(O)C(O)C(C)O1 (stereo partly drawn)	0.103 µM (active)	1.72 µM (inactive)	0.0553 µM (active)	0.0146 µM (active)	0.138 µM (active)	0.354 µM (active)	0.239 µM (active)	0.35 µM (active)	0.108 µM (active)	< 0.01 µM (active)	0.562 µM (active)	0.583 µM (active)	0.424 µM (active)	0.274 µM (active)	< 0.0358 µM (active)	0.789 µM (active)	0.145 µM (active)	0.286 µM (active)	0.792 µM (active)	0.421 µM (active)
O=S(=O)(O)C(Cc1nc2ccccc2[nH]1)S(=O)(=O)OCCC1S(=O)(=O)OCCOS1(=O)=O (stereo not drawn)	> 100 µM (inactive)	> 100 µM (inactive)	> 100 µM (inactive)	> 100 µM (inactive)	> 100 µM (inactive)	> 100 µM (inactive)	> 100 µM (inactive)	> 100 µM (inactive)	> 100 µM (inactive)	> 100 µM (inactive)	> 100 µM (inactive)	> 100 µM (inactive)	> 100 µM (inactive)	> 100 µM (inactive)	> 100 µM (inactive)	> 100 µM (inactive)	> 100 µM (inactive)	> 100 µM (inactive)	> 100 µM (inactive)	> 100 µM (inactive)
CC(=O)[C@H]1[C@H](O)C[C@@]2(C)[C@@H]3CCc4cc(O)c(OC5OC(CO)C(O)C(O)C5O)cc4C3(C)C(=O)C[C@]12C (stereo partly drawn)	> 100 µM (inactive)	> 100 µM (inactive)	> 100 µM (inactive)	> 100 µM (inactive)	> 100 µM (inactive)	> 100 µM (inactive)	> 100 µM (inactive)	> 100 µM (inactive)	> 100 µM (inactive)	> 100 µM (inactive)	> 100 µM (inactive)	> 100 µM (inactive)	> 100 µM (inactive)	> 100 µM (inactive)	> 100 µM (inactive)	> 100 µM (inactive)	> 100 µM (inactive)	> 100 µM (inactive)	> 100 µM (inactive)	> 100 µM (inactive)
